Measurements taken from ChEMBL document CHEMBL5512695, “Discovery of N-Substituted Acetamide Derivatives as Promising P2Y14R Antagonists Using Molecular Hybridization Based on Crystallographic Overlay” (J Med Chem, 2024).
pIC50: −log10 of the molar value. Values belong to the compound of their own block, whether it stands above or below them.

Tests used:
[1] = molecular target: T1, P2Y purinoceptor 14 (Homo sapiens) (UniProt Q15391); conditions: time 30.0 min
T1 sequence (whole entry): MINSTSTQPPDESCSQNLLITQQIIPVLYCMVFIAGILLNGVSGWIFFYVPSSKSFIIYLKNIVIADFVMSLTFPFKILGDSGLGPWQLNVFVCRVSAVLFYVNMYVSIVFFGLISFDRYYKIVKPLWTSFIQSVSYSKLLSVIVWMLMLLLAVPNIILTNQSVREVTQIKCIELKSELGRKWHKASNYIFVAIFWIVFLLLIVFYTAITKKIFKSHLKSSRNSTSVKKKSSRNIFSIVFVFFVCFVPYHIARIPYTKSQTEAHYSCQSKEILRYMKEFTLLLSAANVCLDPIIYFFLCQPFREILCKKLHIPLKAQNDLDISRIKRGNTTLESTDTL

P2Y purinoceptor 14 = molecular target: T2, P2Y purinoceptor 14 (Homo sapiens, UniProt Q15391); assay: Antagonist activity at human P2Y14R stably expressed in HEK293 cells assessed as inhibition of forskolin-[…] cAMP production incubated for 30 mins by cAMP-Glo assay; format: functional, cell-based
T2 sequence (Q15391 whole entry): T1 sequence (whole entry)

HUVEC = assay: Cytotoxicity against MSU/LPS-stimulated HUVEC cells assessed as decrease in cell viability at 256 uM incubated for 24 hrs by SRB assay; format: toxicity, cell-based; conditions: human
Cytochrome P450 1A2 = molecular target: T3, Cytochrome P450 1A2 (Homo sapiens, UniProt P05177); assay: Inhibition of CYP1A2 in human liver microsomes using phenacetin as substrate preincubated for 10 mins followed by substrate addition measured after 30 mins by LC/MS analysis; format: ADME, Microsome
T3 sequence (P05177 whole entry): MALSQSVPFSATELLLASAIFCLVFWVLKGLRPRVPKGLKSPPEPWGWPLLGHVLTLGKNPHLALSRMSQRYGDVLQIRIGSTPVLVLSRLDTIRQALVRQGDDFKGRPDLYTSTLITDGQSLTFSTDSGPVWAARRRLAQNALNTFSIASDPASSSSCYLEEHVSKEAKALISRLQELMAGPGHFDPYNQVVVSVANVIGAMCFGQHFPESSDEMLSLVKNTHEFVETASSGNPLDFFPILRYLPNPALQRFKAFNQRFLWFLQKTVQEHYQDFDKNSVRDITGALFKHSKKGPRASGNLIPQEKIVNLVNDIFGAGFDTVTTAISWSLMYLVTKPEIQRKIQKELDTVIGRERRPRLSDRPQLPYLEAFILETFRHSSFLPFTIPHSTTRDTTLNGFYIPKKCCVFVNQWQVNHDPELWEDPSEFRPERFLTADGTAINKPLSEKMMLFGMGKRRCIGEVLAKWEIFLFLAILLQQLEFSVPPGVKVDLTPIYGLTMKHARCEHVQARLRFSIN

Cytochrome P450 3A4 = Cytochrome P450 3A4 (Homo sapiens, UniProt P08684); assay: Inhibition of CYP3A4 in human liver microsomes using midazolam as substrate preincubated for 10 mins followed by substrate addition measured after 30 mins by LC/MS analysis; format: ADME, Microsome
[2] = Tmax in SD […] at 10 mg/kg, iv measured for 24 hrs; format: ADME, organism-based; conditions: in vivo
[3] = Oral bioavailability in SD […] at 20 mg/kg measured for 24 hrs; format: ADME, organism-based; conditions: in vivo
[4] = Stability in SGF assessed as half life; format: ADME
[5] = AUC (0 to 24 hrs) in SD […] at 10 mg/kg, iv; format: ADME, organism-based; conditions: in vivo
[6] = Cmax in SD […] at 20 mg/kg, po measured for 24 hrs; format: ADME, organism-based; conditions: in vivo
[7] = Half life in SD […] at 20 mg/kg, po measured for 24 hrs; format: ADME, organism-based; conditions: in vivo
Cytochrome P450 2D6 = Cytochrome P450 2D6 (Homo sapiens, UniProt P10635); assay: Inhibition of CYP2D6 in human liver microsomes using dextromethorphan as substrate preincubated for 10 mins followed by substrate addition measured after 30 mins by LC/MS analysis; format: ADME, Microsome
HEK-293T = assay: Cytotoxicity against MSU/LPS-stimulated HEK293T cells assessed as decrease in cell viability at 256 uM incubated for 24 hrs by SRB assay; format: toxicity, cell-based; conditions: human
[8] = Stability in human liver microsomes assessed as half life measured for 45 mins by LC-MS/MS analysis; format: ADME, Microsome
P2Y purinoceptor 12 = P2Y purinoceptor 12 (Homo sapiens, UniProt Q9H244); assay: Inhibition of human P2Y12R stably expressed in 2-MeSADP -stimulated HEK293 cells incubated for 0.5 hrs by cAMP production assay; format: functional, cell-based
[9] = Stability in SIF assessed as half life; format: ADME
[10] = Cmax in SD […] at 10 mg/kg, iv measured for 24 hrs; format: ADME, organism-based; conditions: in vivo
P2Y purinoceptor 6 = P2Y purinoceptor 6 (Homo sapiens, UniProt Q15077); assay: Inhibition of human P2Y6R stably expressed in UDP-stimulated HEK293 cells incubated for 0.5 hrs by IP3 production assay; format: functional, cell-based
[11] = Clearance in SD […] at 10 mg/kg, iv measured for 24 hrs; format: ADME, organism-based; conditions: in vivo
[12] = Half life in SD […] at 10 mg/kg, iv measured for 24 hrs; format: ADME, organism-based; conditions: in vivo
Cytochrome P450 2C9 = Cytochrome P450 2C9 (Homo sapiens, UniProt P11712); assay: Inhibition of CYP2C9 in human liver microsomes using diclofenac as substrate preincubated for 10 mins followed by substrate addition measured after 30 mins by LC/MS analysis; format: ADME, Microsome
[13] = Tmax in SD […] at 20 mg/kg, po measured for 24 hrs; format: ADME, organism-based; conditions: in vivo
[14] = Clearance in SD […] at 20 mg/kg, po measured for 24 hrs; format: ADME, organism-based; conditions: in vivo
[15] = molecular target: Voltage-gated inwardly rectifying potassium channel KCNH2 (Homo sapiens, UniProt Q12809); assay: Inhibition of hERG expressed in HEK293 by whole cell Q-patch analysis; format: toxicity, cell-based
Cytochrome P450 2C19 = Cytochrome P450 2C19 (Homo sapiens, UniProt P33261); assay: Inhibition of CYP2C19 in human liver microsomes using S-mephenytoin as substrate preincubated for 10 mins followed by substrate addition measured after 30 mins by LC/MS analysis; format: ADME, Microsome
[16] = AUC (0 to 24 hrs) in SD […] at 20 mg/kg, po; format: ADME, organism-based; conditions: in vivo
[17] = HEK293, filed as antagonist, dose 100.0 nM

Sequence of Voltage-gated inwardly rectifying potassium channel KCNH2 (Q12809 whole entry): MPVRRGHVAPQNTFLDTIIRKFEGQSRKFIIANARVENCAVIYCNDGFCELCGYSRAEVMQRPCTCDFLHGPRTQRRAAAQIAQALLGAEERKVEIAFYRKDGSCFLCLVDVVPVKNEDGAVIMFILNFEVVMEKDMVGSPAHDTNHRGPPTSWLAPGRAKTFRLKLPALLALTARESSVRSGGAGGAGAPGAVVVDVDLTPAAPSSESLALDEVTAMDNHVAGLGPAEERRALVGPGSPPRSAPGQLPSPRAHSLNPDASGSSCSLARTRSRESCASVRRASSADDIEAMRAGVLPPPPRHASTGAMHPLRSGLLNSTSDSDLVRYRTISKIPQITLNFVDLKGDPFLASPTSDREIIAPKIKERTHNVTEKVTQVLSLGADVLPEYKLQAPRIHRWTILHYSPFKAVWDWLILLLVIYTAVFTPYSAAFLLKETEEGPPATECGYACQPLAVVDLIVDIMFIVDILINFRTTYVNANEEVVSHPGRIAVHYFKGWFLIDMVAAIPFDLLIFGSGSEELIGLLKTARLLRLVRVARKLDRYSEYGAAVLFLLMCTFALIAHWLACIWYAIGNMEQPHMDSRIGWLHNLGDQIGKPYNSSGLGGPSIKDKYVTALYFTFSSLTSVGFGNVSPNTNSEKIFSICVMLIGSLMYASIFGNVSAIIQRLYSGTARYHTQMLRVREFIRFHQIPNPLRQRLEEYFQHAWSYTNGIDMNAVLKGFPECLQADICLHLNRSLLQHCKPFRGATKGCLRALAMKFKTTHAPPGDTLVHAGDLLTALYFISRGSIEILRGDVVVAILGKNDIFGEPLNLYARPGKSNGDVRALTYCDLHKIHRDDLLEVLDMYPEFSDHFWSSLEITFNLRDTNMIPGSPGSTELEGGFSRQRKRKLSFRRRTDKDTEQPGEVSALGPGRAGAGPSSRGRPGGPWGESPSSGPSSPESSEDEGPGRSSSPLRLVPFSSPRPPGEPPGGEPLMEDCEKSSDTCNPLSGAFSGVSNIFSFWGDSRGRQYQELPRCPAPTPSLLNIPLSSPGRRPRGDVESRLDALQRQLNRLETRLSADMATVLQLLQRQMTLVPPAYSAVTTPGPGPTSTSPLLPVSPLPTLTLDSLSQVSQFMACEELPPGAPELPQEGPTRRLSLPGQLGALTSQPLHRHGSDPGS
Sequence of P2Y purinoceptor 12 (Q9H244 whole entry): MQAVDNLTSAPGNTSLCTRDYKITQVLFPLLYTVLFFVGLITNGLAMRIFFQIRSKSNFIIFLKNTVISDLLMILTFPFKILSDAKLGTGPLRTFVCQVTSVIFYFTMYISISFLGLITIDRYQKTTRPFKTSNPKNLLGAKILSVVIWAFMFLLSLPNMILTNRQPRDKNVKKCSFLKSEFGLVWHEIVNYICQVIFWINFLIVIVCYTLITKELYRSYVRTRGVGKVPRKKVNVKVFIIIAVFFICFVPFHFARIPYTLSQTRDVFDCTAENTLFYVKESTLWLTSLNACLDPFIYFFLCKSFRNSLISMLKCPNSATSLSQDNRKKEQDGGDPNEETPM
Sequence of Cytochrome P450 2C9 (P11712 whole entry): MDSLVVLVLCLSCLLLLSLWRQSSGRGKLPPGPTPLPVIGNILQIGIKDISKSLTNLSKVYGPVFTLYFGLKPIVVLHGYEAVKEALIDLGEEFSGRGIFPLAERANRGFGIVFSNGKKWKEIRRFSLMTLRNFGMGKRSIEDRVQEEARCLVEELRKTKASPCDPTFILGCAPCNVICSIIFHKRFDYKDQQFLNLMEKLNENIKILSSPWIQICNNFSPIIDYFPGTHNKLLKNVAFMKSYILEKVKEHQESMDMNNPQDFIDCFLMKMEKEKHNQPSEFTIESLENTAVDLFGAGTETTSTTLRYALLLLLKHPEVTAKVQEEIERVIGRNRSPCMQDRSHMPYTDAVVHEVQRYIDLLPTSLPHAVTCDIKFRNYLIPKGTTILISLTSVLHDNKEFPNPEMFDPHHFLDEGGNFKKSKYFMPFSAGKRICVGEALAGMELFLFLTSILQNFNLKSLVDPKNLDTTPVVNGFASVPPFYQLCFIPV
Sequence of Cytochrome P450 2C19 (P33261 whole entry): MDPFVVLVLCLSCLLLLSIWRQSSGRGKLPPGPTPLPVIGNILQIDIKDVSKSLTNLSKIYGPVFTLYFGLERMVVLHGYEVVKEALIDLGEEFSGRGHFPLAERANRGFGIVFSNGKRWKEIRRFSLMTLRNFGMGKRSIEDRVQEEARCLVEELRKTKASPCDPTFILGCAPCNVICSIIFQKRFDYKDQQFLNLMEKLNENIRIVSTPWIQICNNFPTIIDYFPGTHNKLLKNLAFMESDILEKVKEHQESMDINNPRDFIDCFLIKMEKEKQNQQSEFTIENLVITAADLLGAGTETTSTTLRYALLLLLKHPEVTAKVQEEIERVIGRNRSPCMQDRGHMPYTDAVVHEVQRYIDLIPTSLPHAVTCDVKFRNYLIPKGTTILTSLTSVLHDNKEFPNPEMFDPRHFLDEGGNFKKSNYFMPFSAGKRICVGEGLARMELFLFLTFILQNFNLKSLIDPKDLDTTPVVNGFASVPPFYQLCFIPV
Sequence of Cytochrome P450 3A4 (P08684 whole entry): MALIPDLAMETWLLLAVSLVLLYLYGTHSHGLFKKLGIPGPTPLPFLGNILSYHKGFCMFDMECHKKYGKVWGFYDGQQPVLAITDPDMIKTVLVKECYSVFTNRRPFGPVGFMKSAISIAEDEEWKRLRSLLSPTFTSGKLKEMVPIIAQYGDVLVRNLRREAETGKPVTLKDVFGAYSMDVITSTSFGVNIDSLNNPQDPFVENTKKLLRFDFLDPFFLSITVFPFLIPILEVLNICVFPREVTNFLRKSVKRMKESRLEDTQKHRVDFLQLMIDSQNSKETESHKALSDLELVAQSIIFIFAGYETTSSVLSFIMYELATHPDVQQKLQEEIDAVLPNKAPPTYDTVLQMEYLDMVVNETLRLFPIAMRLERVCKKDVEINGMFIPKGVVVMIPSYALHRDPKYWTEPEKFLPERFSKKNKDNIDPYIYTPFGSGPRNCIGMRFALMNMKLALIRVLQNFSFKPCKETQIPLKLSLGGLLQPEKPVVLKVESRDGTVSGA
Sequence of P2Y purinoceptor 6 (Q15077 whole entry): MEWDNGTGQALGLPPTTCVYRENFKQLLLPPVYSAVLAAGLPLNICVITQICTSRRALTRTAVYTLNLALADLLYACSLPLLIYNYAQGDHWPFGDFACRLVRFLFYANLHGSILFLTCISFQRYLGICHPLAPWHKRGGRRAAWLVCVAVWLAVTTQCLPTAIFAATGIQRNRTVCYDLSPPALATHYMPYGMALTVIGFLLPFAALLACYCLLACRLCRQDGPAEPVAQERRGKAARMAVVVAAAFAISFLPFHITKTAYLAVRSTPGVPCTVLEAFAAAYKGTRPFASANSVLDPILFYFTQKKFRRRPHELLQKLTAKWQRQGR
Sequence of Cytochrome P450 2D6 (P10635 whole entry): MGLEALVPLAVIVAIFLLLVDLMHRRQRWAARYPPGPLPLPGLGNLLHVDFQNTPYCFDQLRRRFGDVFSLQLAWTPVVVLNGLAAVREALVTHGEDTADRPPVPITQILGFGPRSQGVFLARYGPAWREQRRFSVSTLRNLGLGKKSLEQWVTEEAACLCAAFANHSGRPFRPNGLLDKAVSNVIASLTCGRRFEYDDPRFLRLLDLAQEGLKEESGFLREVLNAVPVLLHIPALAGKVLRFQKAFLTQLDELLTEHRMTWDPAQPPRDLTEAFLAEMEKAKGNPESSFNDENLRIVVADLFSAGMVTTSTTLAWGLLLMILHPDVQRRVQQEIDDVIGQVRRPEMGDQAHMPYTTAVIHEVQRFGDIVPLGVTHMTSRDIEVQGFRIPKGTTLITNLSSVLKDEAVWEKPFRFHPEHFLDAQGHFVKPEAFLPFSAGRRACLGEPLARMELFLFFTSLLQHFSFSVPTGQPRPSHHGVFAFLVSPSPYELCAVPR

SMILES: Cc1ccc(OCC(=O)Nc2ccc3ncoc3c2)cc1
inhibition ([1]; HEK293, dose 100.0 nM): 32%

SMILES: Cc1ccc(OCC(=O)Nc2ccc3ncsc3c2)cc1
inhibition ([1]; HEK293, dose 100.0 nM): 17.9%

SMILES: O=C(COc1ccc(Br)cc1)Nc1ccc2cccnc2c1
inhibition ([1]; HEK293, dose 100.0 nM): 15.2%

SMILES: Cc1ccc(OCC(=O)Nc2ccc3cc[nH]c3c2)cc1
inhibition [1, 17]: 48.3%

SMILES: O=C(COc1ccc(C(F)(F)F)cc1)Nc1ccc2cccnc2c1
inhibition ([1]; HEK293, dose 100.0 nM): 38.3%

SMILES: O=C(COc1ccc(Cl)cc1)Nc1ccc2cccnc2c1
inhibition ([1]; HEK293, dose 100.0 nM): 12.1%

SMILES: O=C(COc1ccc(CO)cc1)Nc1ccc2cccnc2c1
inhibition ([1]; HEK293, dose 100.0 nM): 16.3%

SMILES: Cc1ccc(OCC(=O)Nc2ccc3cn[nH]c3c2)cc1
inhibition ([1]; HEK293, dose 100.0 nM): 11.3%

SMILES: Cc1ccc(OCC(=O)Nc2ccc3sccc3c2)cc1
inhibition [1, 17]: 41.3%

More lines, main results first:

inhibition ([1]; HEK293, dose 100.0 nM): 10.2%
SMILES: COc1ccc(OCC(=O)Nc2ccc3nc[nH]c3c2)cc1

inhibition ([1]; HEK293, dose 100.0 nM): 21.8%
SMILES: CC(C)c1ccc(OCC(=O)Nc2ccc3nc[nH]c3c2)cc1

inhibition ([1]; HEK293, dose 100.0 nM): 17.6%
SMILES: O=Cc1ccc(OCC(=O)Nc2ccc3cccnc3c2)cc1

inhibition [1, 17]: 95.2%
pIC50 (P2Y purinoceptor 14): 8.89
SMILES: O=Cc1ccc(OCC(=O)Nc2ccc3nc[nH]c3c2)cc1

pIC50 (Cytochrome P450 1A2): < 4.30
pIC50 (Cytochrome P450 3A4): 4.71
Tmax [2]: 0.3 h
bioavailability [3]: 75%
half-life [4]: > 50 h
AUC [5]: 1765 µg/L/h
Cmax [6]: 2900 ng/mL
half-life [7]: 12.6 h
pIC50 (Cytochrome P450 2D6): < 4.30
half-life [8]: 3.27 h
pIC50 (P2Y purinoceptor 12): < 4.00
half-life [9]: > 5 h
Cmax [10]: 1530 ng/mL
pIC50 (P2Y purinoceptor 6): 4.05
clearance [11]: 3.5 mL/min/kg
half-life [12]: 7.6 h
pIC50 (Cytochrome P450 2C9): < 4.30
Tmax [13]: 0.533 h
CL/F [14]: 14.8 mL/min/kg
pIC50 (Cytochrome P450 2C19): < 4.30
AUC [16]: 2845 µg/L/h
SMILES: O=C(COc1ccc(Br)cc1)Nc1ccc2nc[nH]c2c1
Activity (HUVEC): Non-Toxic
Activity (HEK-293T): Non-Toxic
pIC50 [15]: < 4.30
